Experimental data from patent publication US20250213555A1, “SUBSTITUTED TETRAHYDROFURAN ANALOGS AS MODULATORS OF SODIUM CHANNELS” (VERTEX PHARMACEUTICALS INCORPORATED, priority 2021, published 2025).
One block for each compound: values may come before it.

Molecular target: human Nav 1.8 (Homo sapiens, UniProt Q9Y5Y9)
Experiment: E-VIPR assay detecting and measuring Nav inhibition properties
Type: cell-based
Details: HEK cells expressing a truncated form of human Nav 1.8; compound numbers without "*" (not marked as run in the presence of human serum); read-out: measured IC50 value in the E-VIPR Assay
Method in brief: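 Nav inhibition was read by E-VIPR: cells were electrically stimulated while coumarin/oxonol FRET emissions were recorded. Cells were HEK expressing a truncated human Nav 1.8 and co-transduced with KIR2.1, and were assayed in 25% final human serum.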

Chain of human Nav 1.8 (Q9Y5Y9 126-399 limits assumed): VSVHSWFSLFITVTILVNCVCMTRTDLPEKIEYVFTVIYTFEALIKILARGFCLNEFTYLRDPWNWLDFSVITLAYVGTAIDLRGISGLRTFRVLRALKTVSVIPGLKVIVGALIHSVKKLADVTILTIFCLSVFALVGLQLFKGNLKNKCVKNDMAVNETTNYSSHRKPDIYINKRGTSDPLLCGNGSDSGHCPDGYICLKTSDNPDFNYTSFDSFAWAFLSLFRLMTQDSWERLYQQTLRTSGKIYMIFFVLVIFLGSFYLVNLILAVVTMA
Chain of human Nav 1.8 (Q9Y5Y9 660-890 limits assumed): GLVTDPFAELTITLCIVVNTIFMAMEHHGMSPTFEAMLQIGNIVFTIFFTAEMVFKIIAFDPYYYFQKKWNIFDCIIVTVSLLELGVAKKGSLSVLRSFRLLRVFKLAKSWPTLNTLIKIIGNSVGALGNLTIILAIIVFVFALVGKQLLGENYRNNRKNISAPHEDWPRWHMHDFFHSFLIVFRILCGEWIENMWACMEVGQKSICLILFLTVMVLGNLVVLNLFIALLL
Chain of human Nav 1.8 (Q9Y5Y9 1148-1722 limits assumed): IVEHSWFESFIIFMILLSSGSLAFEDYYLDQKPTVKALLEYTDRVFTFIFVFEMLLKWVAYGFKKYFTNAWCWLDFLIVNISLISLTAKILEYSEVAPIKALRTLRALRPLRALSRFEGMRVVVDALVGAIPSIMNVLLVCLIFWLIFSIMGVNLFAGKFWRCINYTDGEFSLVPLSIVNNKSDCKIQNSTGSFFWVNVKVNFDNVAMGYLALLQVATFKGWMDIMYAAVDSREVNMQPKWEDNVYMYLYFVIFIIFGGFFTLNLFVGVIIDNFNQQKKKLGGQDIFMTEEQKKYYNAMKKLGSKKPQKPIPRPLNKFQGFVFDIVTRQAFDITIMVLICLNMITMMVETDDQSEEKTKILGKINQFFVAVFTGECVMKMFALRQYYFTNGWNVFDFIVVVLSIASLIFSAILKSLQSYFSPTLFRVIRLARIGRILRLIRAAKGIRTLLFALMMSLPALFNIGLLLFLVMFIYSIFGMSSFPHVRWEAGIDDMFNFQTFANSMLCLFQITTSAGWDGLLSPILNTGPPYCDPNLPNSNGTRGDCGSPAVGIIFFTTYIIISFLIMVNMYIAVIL

Structure (SMILES): COc1c([C@H]2[C@H](C(=O)Nc3ccnc(C(N)=O)c3)O[C@@](C)(C(F)(F)F)[C@H]2C)ccc(OC2CC(F)(F)C2)c1F [Compound 207, 4-((2R,3S,4S,5R)-3-(4-(3,3-difluorocyclobutoxy)-3-fluoro-2-methoxyphenyl)-4,5-dimethyl-5-(trifluoromethyl)tetrahydrofuran-2-carboxamido) picolinamide]
IC50: < 10 nM

Structure (SMILES): C[C@H]1[C@@H](c2ccc(F)c(F)c2OC[C@H]2C[C@](O)(C(F)(F)F)C2)[C@H](C(=O)Nc2ccnc(C(N)=O)c2)O[C@@]1(C)C(F)(F)F [Compound 7, 4-((2R,3S,4S,5R)-3-(3,4-difluoro-2-(((1s,3R)-3-hydroxy-3-(trifluoromethyl)cyclobutyl)methoxy)phenyl)-4,5-dimethyl-5-(trifluoromethyl)tetrahydrofuran-2-carboxamido)picolinamide]
IC50: 10 to 100 nM

Structure (SMILES): C[C@H]1CN(CCOc2c([C@H]3[C@H](C(=O)Nc4ccnc(C(N)=O)c4)O[C@@](C)(C(F)(F)F)[C@H]3C)ccc(F)c2F)CCO1 [Compound 111, 4-((2R,3S,4S,5R)-3-(3,4-difluoro-2-(2-((S)-2-methylmorpholino)ethoxy)phenyl)-4,5-dimethyl-5-(trifluoromethyl)tetrahydrofuran-2-carboxamido)picolinamide]
IC50: < 10 nM

Structure (SMILES): C[C@H]1[C@@H](c2ccc(F)c(F)c2OCCc2cncn2C)[C@H](C(=O)Nc2ccnc(C(N)=O)c2)O[C@@]1(C)C(F)(F)F [Compound 86, 4-((2R,3S,4S,5R)-3-(3,4-difluoro-2-(2-(1-methyl-1H-imidazol-5-yl)ethoxy)phenyl)-4,5-dimethyl-5-(trifluoromethyl)tetrahydrofuran-2-carboxamido)picolinamide]
IC50: < 10 nM

Structure (SMILES): C[C@H]1[C@@H](c2ccc(F)c(F)c2OCCN2C[C@H]3COC[C@H]3C2)[C@H](C(=O)Nc2ccnc(C(N)=O)c2)O[C@@]1(C)C(F)(F)F [Compound 55, 4-((2R,3S,4S,5R)-3-(3,4-difluoro-2-(2-((3aR,6aS)-tetrahydro-1H-furo[3,4-c]pyrrol-5(3H)-yl)ethoxy)phenyl)-4,5-dimethyl-5-(trifluoromethyl)tetrahydrofuran-2-carboxamido)picolinamide]
IC50: < 10 nM

Structure (SMILES): COc1c([C@H]2[C@H](C(=O)Nc3ccnc(C(=O)N4CC5COCC(C4)N5)c3)O[C@@](C)(C(F)(F)F)[C@H]2C)ccc(F)c1F [Compound 245, (2R,3S,4S,5R)-N-(2-(3-oxa-7,9-diazabicyclo[3.3.1]nonane-7-carbonyl)pyridin-4-yl)-3-(3,4-difluoro-2-methoxyphenyl)-4,5-dimethyl-5-(trifluoromethyl)tetrahydrofuran-2-carboxamide]
IC50: < 10 nM

Structure (SMILES): COc1c([C@H]2[C@H](C(=O)Nc3ccnc(C(=O)N4C[C@H]5CC[C@@H](C4)N(C)C5)c3)O[C@@](C)(C(F)(F)F)[C@H]2C)ccc(F)c1F [Compound 283, (2R,3S,4S,5R)-3-(3,4-difluoro-2-methoxyphenyl)-4,5-dimethyl-N-(2-((1S,5S)-6-methyl-3,6-diazabicyclo[3.2.2]nonane-3-carbonyl)pyridin-4-yl)-5-(trifluoromethyl)tetrahydrofuran-2-carboxamide]
IC50: < 10 nM

Structure (SMILES): C[C@H]1[C@@H](c2ccc(F)c(F)c2OCC(=NO)C2CC2)[C@H](C(=O)Nc2ccnc(C(N)=O)c2)O[C@@]1(C)C(F)(F)F [Compound 182, 4-((2R,3S,4S,5R)-3-(2-(2-cyclopropyl-2-(hydroxyimino)ethoxy)-3,4-difluorophenyl)-4,5-dimethyl-5-(trifluoromethyl)tetrahydrofuran-2-carboxamido) picolinamide]
IC50: < 10 nM

Structure (SMILES): C[C@H](Oc1c([C@H]2[C@H](C(=O)Nc3ccnc(C(N)=O)c3)O[C@@](C)(C(F)(F)F)[C@H]2C)ccc(F)c1F)C1COC1 [Compound 158, 4-((2R,3S,4S,5R)-3-(3,4-difluoro-2-((S)-1-(oxetan-3-yl)ethoxy)phenyl)-4,5-dimethyl-5-(trifluoromethyl)tetrahydrofuran-2-carboxamido)picolinamide]
IC50: < 10 nM

Structure (SMILES): COc1c([C@H]2[C@H](C(=O)Nc3cc(C(=O)N4CCN(C)CC4)ncc3C)O[C@@](C)(C(F)(F)F)[C@H]2C)ccc(F)c1F [Compound 12, (2R,3S,4S,5R)-3-(3,4-difluoro-2-methoxyphenyl)-4,5-dimethyl-N-(5-methyl-2-(4-methylpiperazine-1-carbonyl)pyridin-4-yl)-5-(trifluoromethyl)tetrahydrofuran-2-carboxamide]
IC50: 10 to 100 nM

Structure (SMILES): C[C@H]1[C@@H](c2ccc(F)c(F)c2OCc2cnn(C)c2)[C@H](C(=O)Nc2ccnc(C(N)=O)c2)O[C@@]1(C)C(F)(F)F [Compound 73, 4-((2R,3S,4S,5R)-3-(3,4-difluoro-2-((1-methyl-1H-pyrazol-4-yl)methoxy)phenyl)-4,5-dimethyl-5-(trifluoromethyl)tetrahydrofuran-2-carboxamido)picolinamide]
IC50: < 10 nM

Structure (SMILES): COc1c([C@@H]2[C@@H](C(=O)Nc3ccnc(C(N)=O)c3)O[C@@](C)(C(F)(F)F)[C@H]2C)ccc(OCC2CC2)c1F (single isomer, unassigned) [Compound 143]
IC50: 100 to 1000 nM

Structure (SMILES): C[C@H]1[C@@H](c2ccc(F)c(F)c2OCCN2CCC3(COC3)C2)[C@H](C(=O)Nc2ccnc(C(N)=O)c2)O[C@@]1(C)C(F)(F)F [Compound 127, 4-((2R,3S,4S,5R)-3-(2-(2-(2-oxa-6-azaspiro[3.4]octan-6-yl)ethoxy)-3,4-difluorophenyl)-4,5-dimethyl-5-(trifluoromethyl)tetrahydrofuran-2-carboxamido)picolinamide]
IC50: < 10 nM

Structure (SMILES): C=C(CO)COc1c([C@H]2[C@H](C(=O)Nc3ccnc(C(N)=O)c3)O[C@@](C)(C(F)(F)F)[C@H]2C)ccc(F)c1F [Compound 132]
IC50: < 10 nM

Structure (SMILES): C[C@H]1[C@@H](c2ccc(F)c(F)c2OCC2COC2)[C@H](C(=O)Nc2ccnc(C(N)=O)c2)O[C@@]1(C)C(F)(F)F [Compound 70, 4-((2R,3S,4S,5R)-3-(3,4-difluoro-2-(oxetan-3-ylmethoxy)phenyl)-4,5-dimethyl-5-(trifluoromethyl)tetrahydrofuran-2-carboxamido)picolinamide]
IC50: < 10 nM

Further lines, results first:

IC50: < 10 nM
Structure (SMILES): COc1c([C@H]2[C@H](C(=O)Nc3ccnc(C(=O)N(C)CCN(C)C)c3)O[C@@](C)(C(F)(F)F)[C@H]2C)ccc(F)c1F [Compound 273, 4-((2R,3S,4S,5R)-3-(3,4-difluoro-2-methoxyphenyl)-4,5-dimethyl-5-(trifluoromethyl)tetrahydrofuran-2-carboxamido)-N-(2-(dimethylamino)ethyl)-N-methylpicolinamide]

IC50: 10 to 100 nM
Structure (SMILES): COc1c([C@H]2[C@H](C(=O)Nc3ccnc(C(=O)N[C@H]4CCN(C)C4)c3)O[C@@](C)(C(F)(F)F)[C@H]2C)ccc(F)c1F [Compound 277, 4-((2R,3S,4S,5R)-3-(3,4-difluoro-2-methoxyphenyl)-4,5-dimethyl-5-(trifluoromethyl)tetrahydrofuran-2-carboxamido)-N-((S)-1-methylpyrrolidin-3-yl)picolinamide]

IC50: < 10 nM
Structure (SMILES): COc1c([C@H]2[C@H](C(=O)Nc3ccnc(C(=O)N4CC[C@H](O)C4)c3)O[C@@](C)(C(F)(F)F)[C@H]2C)ccc(F)c1F [Compound 219, (2R,3S,4S,5R)-3-(3,4-difluoro-2-methoxyphenyl)-N-(2-((S)-3-hydroxypyrrolidine-1-carbonyl)pyridin-4-yl)-4,5-dimethyl-5-(trifluoromethyl)tetrahydrofuran-2-carboxamide]

IC50: 100 to 1000 nM
Structure (SMILES): COc1c([C@H]2[C@H](C(=O)Nc3ccnc(C(=O)NC[C@@H]4CC(F)(F)CN4C)c3)O[C@@](C)(C(F)(F)F)[C@H]2C)ccc(F)c1F [Compound 267, N-(((S)-4,4-difluoro-1-methylpyrrolidin-2-yl)methyl)-4-((2R,3S,4S,5R)-3-(3,4-difluoro-2-methoxyphenyl)-4,5-dimethyl-5-(trifluoromethyl)tetrahydrofuran-2-carboxamido)picolinamide]

IC50: ≥ 1000 nM
Structure (SMILES): C[C@H]1[C@@H](c2cc(Br)c(F)c(F)c2O)[C@H](C(=O)Nc2ccnc(C(N)=O)c2)O[C@@]1(C)C(F)(F)F [Compound 176, 4-((2R,3S,4S,5R)-3-(5-bromo-3,4-difluoro-2-hydroxyphenyl)-4,5-dimethyl-5-(trifluoromethyl)tetrahydrofuran-2-carboxamido)picolinamide]

IC50: < 10 nM
Structure (SMILES): COc1c([C@H]2[C@H](C(=O)Nc3ccnc(C(=O)N4C[C@@H](N)[C@@H](OC)C4)c3)O[C@@](C)(C(F)(F)F)[C@H]2C)ccc(F)c1F [Compound 261, (2R,3S,4S,5R)-N-(2-((3R,4S)-3-amino-4-methoxypyrrolidine-1-carbonyl)pyridin-4-yl)-3-(3,4-difluoro-2-methoxyphenyl)-4,5-dimethyl-5-(trifluoromethyl)tetrahydrofuran-2-carboxamide]

IC50: < 10 nM
Structure (SMILES): COc1c([C@H]2[C@H](C(=O)Nc3ccnc(C(=O)N4C[C@@H](OC)[C@@H](N(C)C)C4)c3)O[C@@](C)(C(F)(F)F)[C@H]2C)ccc(F)c1F [Compound 298, (2R,3S,4S,5R)-3-(3,4-difluoro-2-methoxyphenyl)-N-(2-((3S,4R)-3-(dimethylamino)-4-methoxypyrrolidine-1-carbonyl)pyridin-4-yl)-4,5-dimethyl-5-(trifluoromethyl)tetrahydrofuran-2-carboxamide]

IC50: < 10 nM
Structure (SMILES): COc1c([C@H]2[C@H](C(=O)Nc3ccnc(C(=O)N4CCNC[C@@H]4C)c3)O[C@@](C)(C(F)(F)F)[C@H]2C)ccc(F)c1F [Compound 232, (2R,3S,4S,5R)-3-(3,4-difluoro-2-methoxyphenyl)-4,5-dimethyl-N-(2-((S)-2-methylpiperazine-1-carbonyl)pyridin-4-yl)-5-(trifluoromethyl)tetrahydrofuran-2-carboxamide]

IC50: < 10 nM
Structure (SMILES): C[C@H]1[C@@H](c2ccc(F)c(F)c2OCC(=NO)C2CCC2)[C@H](C(=O)Nc2ccnc(C(N)=O)c2)O[C@@]1(C)C(F)(F)F [Compound 191, 4-((2R,3S,4S,5R)-3-(2-(2-cyclobutyl-2-(hydroxyimino)ethoxy)-3,4-difluorophenyl)-4,5-dimethyl-5-(trifluoromethyl)tetrahydrofuran-2-carboxamido)picolinamide]
